How the values were obtained:
[1] = molecular target: T1, recombinant human TTLL4 catalytic domain (Homo sapiens, UniProt Q14679); assay: TTLL4 activity immunoassay (anti-glu immuno-detection of glutamylated Nap2 substrate); type: biochemical; conditions: 0.2 millimolar ATP, 1 millimolar glutamic acid, 30° C., 10 minutes, read-out: in vitro TTLL4 IC50
T1 construct: TTLL4 catalytic domain (composed of residues 561-1199); made in house; host or cells: E. coli
T1 sequence (Q14679 561-1199): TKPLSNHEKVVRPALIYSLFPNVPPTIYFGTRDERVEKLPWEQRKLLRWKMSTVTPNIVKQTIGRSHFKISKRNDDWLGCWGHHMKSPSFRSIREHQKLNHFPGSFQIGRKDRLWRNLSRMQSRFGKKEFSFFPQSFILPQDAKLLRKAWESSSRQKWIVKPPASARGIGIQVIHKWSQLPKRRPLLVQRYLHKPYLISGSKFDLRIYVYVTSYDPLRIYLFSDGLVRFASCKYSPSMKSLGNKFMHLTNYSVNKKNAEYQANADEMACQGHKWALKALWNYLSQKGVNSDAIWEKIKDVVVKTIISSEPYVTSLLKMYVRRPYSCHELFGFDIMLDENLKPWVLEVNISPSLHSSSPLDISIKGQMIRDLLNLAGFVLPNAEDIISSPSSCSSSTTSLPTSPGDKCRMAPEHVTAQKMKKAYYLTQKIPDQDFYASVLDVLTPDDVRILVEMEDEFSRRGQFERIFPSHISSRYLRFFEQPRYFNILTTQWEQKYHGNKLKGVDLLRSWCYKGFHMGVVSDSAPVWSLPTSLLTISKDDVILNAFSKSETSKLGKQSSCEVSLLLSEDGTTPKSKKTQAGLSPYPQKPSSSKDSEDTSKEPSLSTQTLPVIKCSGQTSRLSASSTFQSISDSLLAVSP
Procedure: To measure TTLL4 activity and inhibition by lead compounds, we used an immunoassay. The antibody against mono-glutamate-glutamylation was prepared by immunizing white rabbits with the following peptide: MY {Glu (Glu)} DDEEESEAQGPKC (based on studies published here: doi: 10.1016/S0091-679X (10) 95003-6). The serum was purified by cross-adsorption against a non-glutamylated peptide: MYEDDEEESEAQGPKC. The purified antibody was stored in PBS with 0.02% Preclin 300. The final ELISA titer from the purified antibodies against the glutamylated peptide was >1:512,000. These antibodies are noted as “anti-glu”.
To measure activity, recombinant human TTLL4 catalytic domain (composed of residues 561-1199) was produced in E. coli and purified via nickel-affinity and size exclusion column (Superdex 200) chromatography. Similarly, the glutamate-glutamylation substrate Nap2 (gene from Xenopus tropicalis) was produced in E. coli and purified via nickel-affinity size exclusion column (Superdex 200) chromatography. […] Intensity measurements were quantified with the Microar-ray Profile plugin for FIJI/ImageJ and analyzed with a 4-parameter model in Graphpad Prism v9.

[2] = test system: OCI-AML3 human cell line (degron-inducible NPM1c); assay: NPM1c degradation in OCI-AML3 NPM1c-degron cells, glutamate-glutamylation by Western blot; type: cell-based
Procedure: FIGS. 3A and 3B illustrate that TTLL4 catalyzes NPM1 and NPM1c glutamate-glutamylation. FIG. 3A is a Western blot of an AML3-NPM1c-degron cell line with a doxycycline (DOX)-inducible TTLL4 shRNA knockdown. Scrambled shRNA or TTLL4 shRNA cells were treated +/−DOX, resulting in loss of glutamate-glutamylation on both NPM1c-degron and NPM1 wild type proteins (top gel, +DOX). FIG. 3B is a summary of a qRT-PCR analysis of shTTLL4 cells treated with DOX.
A doxycycline-inducible TTLL4 shRNA was introduced to this cell line. TTLL4kd eliminated NPM1c glutamate-glutamylation and reduced cellular proliferation (FIGS. 3A, 3B, and 4A). In addition, CRISPR-Cas9 mediated knockout of TTLL4 in OCI-AML3 cells reduced colony formation in methylcellulose (FIG. 4B, methylcellulose colony forming assays are used to detect cell proliferation and hematopoietic/progenitor activity) and increased apoptosis (FIG. 4C).

IC50 [1] [µM]	Compound	glutamate-glutamylation of the NPM1 wt protein after degradation of NPM1c [2]
9	COc1ccc(-c2cc3c(SCC(=O)Nc4c(C)cc(C)cc4C)nccn3n2)cc1 [Candidate 1]	–
–	CC[C@H](C(=O)N1CCCC[C@H]1C(=O)O[C@H](CCc1ccc(OC)c(OC)c1)c1ccccc1OCC(=O)NCCCCCCOc1cccc2c1C(=O)N(C1CCC(=O)NC1=O)C2=O)c1cc(OC)c(OC)c(OC)c1 (stereo partly drawn) [dTAG-13]	loss of glutamate-glutamylation of the NPM1 wt protein
40	O=C(Cn1c(=O)c(F)cn(C2CCCO2)c1=O)N1N=C(c2ccc(Cl)cc2)CC1c1ccco1 (stereo not drawn) [Candidate 2]	–

— patent US20250360126A1, “TARGETING AN ENZYME REQUIRED FOR ACUTE MYELOID LEUKEMIA” (Albert Einstein College of Medicine, priority 2023, published 2025)
